In patent US8163805B2, “Small molecule antagonists of Bcl-2 family proteins” (The Regents of the University of Michigan, priority 2001, dated 2012):
Values joined by “and” are separate entries in the source; they are usually repeats but may differ in a detail not shown here. Identical values can stand only once. Like-named read-outs stand apart in the source and are kept apart here.

Assays:
[1] = tested on: MCF-7 breast cancer cell line; assay: Growth inhibition with TAXOL in fixed ratio, MCF-7; assay type: cell-based, human; settings: combinations in a fixed ratio to TAXOL
[2] = tested on: UM-SCC-6; assay: 6-day MTT cell growth, UM-SCC-6; assay type: cell-based, human; settings: read-out: IC50, inhibition of cell growth
Protocol: (§1) UM-SCC and human fibroblast cell lines were continuously exposed to varying concentrations of (−)-gossypol in 6-day MTT cell survival assays. Control wells contained media (DMEM) with vehicle alone. For each data point n=5.
(§2) Ten squamous cell carcinoma cell lines established at the University of Michigan (UM-SCC) and three human fibroblast lines were grown in Dulbecco's modified Eagle's medium (DMEM) supplemented with 10% fetal bovine serum. UM-SCC cell lines originated from the larynx (n=2; UM-SCC-12, -23), oral cavity/oropharynx (n=5; UM-SCC-1, -6, -14A, -74B, -81B), hypopharynx (n=1; UM-SCC-22A) and metastases from laryngeal cancers (n=2; UM-SCC-17B, -25). Human fibroblast cell lines originated from surgical specimens (fibroblast cell lines 2 and 3) and neonatal foreskin samples (fibroblast cell line 1).
(§3) Logarithmically growing cell lines were cultured, washed, counted, and plated at 5,000-15,000 cells per well in duplicate wells of 96-well plates and incubated in DMEM overnight. […] The MTT assay measures cell survival based on mitochondrial conversion of MTT from a soluble tetrazolium salt into an insoluble colored formazan precipitate, which is dissolved in dimethyl sulfoxide and quantitated by spectrophotometry. […] Percent absorbance relative to control was plotted as a linear function of drug concentration.

[3] = tested on: UM-SCC-23; assay: 6-day MTT cell growth, UM-SCC-23; assay type: cell-based, human; settings: read-out: IC50, inhibition of cell growth
Protocol: as §1, §2, §3

[4] = tested on: androgen-independent prostate PC-3 xenograft; assay: PC-3 xenograft, (−)-gossypol and radiation (Example 20); assay type: in vivo, nude mice
Protocol: In this experiment, 60 male 5 to 6 week old NCI athymic NCr-nu/nu nude mice were inoculated in each flank with an injection of about 5×10^6 PC-3 cells. The best 40 xenograft recipients were used. Tumors averaged about 70 mm^3. (−)-Gossypol compounds were first dissolved in ethanol and diluted with sterile water within 5 min to a final ethanol concentration of 10% prior to each administration. Irradiated test animals were restrained, placed under the X-ray head, and covered with lead shields to ensure that the tumor area was exposed to radiation. All oral administrations of (−)-gossypol and 10% alcohol were given by gavage.
The 40 best xenograft mice were divided into experimental groups as follows: radiation only (Groups 1 and 2), 2 Gy administered 5 times/week for 3 weeks, and daily oral administration of 10% alcohol (as vehicle control); radiation plus gossypol (Groups 3 and 4), 2 Gy administered 5 times a week for 3 weeks, and 10 mg/kg of (−)-gossypol administered orally 5 times/week for 4 weeks (8 mice each Group); gossypol only (Groups 5 and 6), 10 mg/kg (−)-gossypol administered orally every day for 4 weeks (8 mice each Group); vehicle control (Groups 7 and 8), daily oral administration of 10% alcohol (8 mice each Group as vehicle control); large tumor animals (combination of Groups 9-12), tumors allowed to reach 500 mm^3.
Other remaining tumors in this group appear pale yellowish and soft as compared with that in control group with hard solid and reddish appearance, indicating tumor blood supply was inhibited.

[5] = tested on: LnCap prostate cancer cells; assay: MTT-based 5-day cell proliferation, LnCap; parameters: species or system human
Text: (§4) The present invention is not limited to any mechanism. Indeed, a mechanistic understanding of the invention is unnecessary to practice (make and use) the present compositions and methods.

[6] = tested on: PC-3 cells
[7] = tested on: UM-SCC-14A; assay: 6-day MTT cell growth, UM-SCC-14A; assay type: cell-based, human; settings: read-out: IC50, inhibition of cell growth
Protocol: as §1, §2, §3

[8] = tested on: UM-SCC-25; assay: 6-day MTT cell growth, UM-SCC-25; assay type: cell-based, human; settings: read-out: IC50, inhibition of cell growth
Protocol: as §1, §2, §3

[9] = tested on: UM-SCC-1; assay: 6-day MTT cell growth, UM-SCC-1; assay type: cell-based, human; settings: read-out: IC50, inhibition of cell growth
Protocol: as §1, §2, §3

[10] = tested on: PC-3 human prostate cancer bilateral xenografts; assay: PC-3 xenograft, (−)-gossypol alone and with cisplatin (Table 11); assay type: in vivo, NCr-nu nude mouse; settings: Table 11
[11] = tested on: UM-SCC cell lines; assay: Flow cytometric TUNEL apoptosis assay, UM-SCC cell lines grouped by p53 status; assay type: cell-based, human; settings: 48-hour
Protocol: Briefly, FIGS. 24A-24C show apoptosis after (−)-gossypol as measured by a fluorescent flow cytometric TUNEL assay. Open peaks represent BrdU labeling of untreated cells. Shaded peaks indicate BrdU labeling of cell populations following 48-hour treatment with 10 μM (−)-gossypol; FIG. 24A, UM-SCC-cell lines with wild type p53; FIG. 24B, UM-SCC-cell lines with mutant p53; and FIG. 24C normal fibroblast cells.
Apoptosis of UM-SCC cell lines following (−)-gossypol treatment was quantitatively detected by enzymatic labeling of DNA strand breaks using terminal deoxynucleotidyltransferase (TdT) and Alexa Fluor-BrdUTP, known as the TdT-UTP nick end-labeling (TUNEL) assay by flow cytometry. Cells were exposed to (−)-gossypol for 48 hours, harvested, fixed and TUNEL stained according to the manufacturer's protocol (Molecular Probes Inc., Eugene, Oreg.). Ten thousand cells were analyzed per sample using excitation of Alexa Fluor at 488 nm. Apoptotic index (AI) was defined as percent of apoptotic cells in the treatment population minus that in the vehicle control population.

[12] = tested on: PARP protein; assay: PARP protein cleavage; assay type: cell-based; settings: compared under identical doses
[13] = tested on: Fib-2 (fibroblast cell line 2); assay: 6-day MTT cell growth, Fib-2; assay type: cell-based, human; settings: read-out: IC50, inhibition of cell growth
Protocol: as §1, §2, §3

[14] = tested on: DU145; assay: MTT-based 5-day cell proliferation, DU145; settings: DU145, FIG. 42
Text: as §4

[15] = tested on: androgen independent prostate cancer PC-3 xenograft; assay: PC-3 xenograft, (−)-gossypol alone and with docetaxel (Example 22); settings: for complete tumor regression, number of mice: combination of (−)-gossypol with docetaxel
[16] = target: T1, Bcl-2 (Homo sapiens, UniProt P10415); assay: FP binding assay, Flu-Bad-25 peptide and GST-fusion Bcl-2 (FIG. 4, 45); settings: FIG. 4
T1 construct: purchased Santa Cruz Biotechnology

[17] = tested on: UM-SCC-1; assay: Trypan blue exclusion cell death, UM-SCC-1; assay type: cell-based, human; settings: 10 μM, 48 hour
Protocol: Cells were seeded in 24 or 96-well-plates and gossypol compounds were prepared at 2-10 fold dilutions in suitable medium. […] Cell viability was then determined by the trypan-blue assays. Inhibition of cell growth was determined by treating cells with gossypol compounds for 3-6 days. Cell inhibition was determined using XTT. In some embodiments, MTT assays are used to determine cell inhibition.

[18] = 8 Gy radiation with 4 μM gossypol
[19] = 8 Gy radiation with 5 μM gossypol
[20] = (−)-gossypol 7.5 mg/kg p.o. daily 4 weeks, docetaxel 7.5 mg/kg once a week 3 weeks

T1 sequence (P10415 1-205 limits assumed): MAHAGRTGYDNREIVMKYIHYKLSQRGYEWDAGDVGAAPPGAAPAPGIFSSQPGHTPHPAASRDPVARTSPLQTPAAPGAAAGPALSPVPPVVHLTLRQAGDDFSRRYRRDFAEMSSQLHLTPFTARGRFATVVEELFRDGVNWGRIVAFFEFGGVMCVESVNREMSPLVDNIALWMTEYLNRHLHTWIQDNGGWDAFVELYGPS

Q: Which results are given for `Cc1cc2c(C(C)C)c(O)c(O)c(C=O)c2c(O)c1-c1c(C)cc2c(C(C)C)c(O)c(O)c(C=O)c2c1O` [(−)-gossypol]?
A: IC50 [1]: 8.71 µM; IC50 [2]: 11 µM; IC50 [3]: 1.5 µM; tumors with complete regression ([4]; (−)-gossypol 10 mg/kg p.o. q.d.×5 4 weeks + X-ray 2 Gy q.d.×5 3 weeks): At least 10 out of 16; tumor growth inhibition compared with vehicle control, day 37 ([4]; Table 15, (−)-gossypol 10 mg/kg p.o. in combination with radiation 2 Gy per day, total 30 Gy): achieved 91.5% tumor growth; complete tumor regression, number of tumors ([4]; Table 15, combination of (−)-gossypol with radiation, out of 16 tumors): regression in 10 out of 16 tumors in; potency in inhibiting cancer cell growth relative to (+)-gossypol [5]: 5-10 times; potency in inhibiting cancer cell growth relative to racemic gossypol [5]: 2 times; Combination Index (CI) [6, 18]: 0.34; Dose Reduction Index (DRI) [6, 18]: 4.3; Combination Index (CI) [6, 19]: 0.27; Dose Reduction Index (DRI) [6, 19]: 6.1; reduction in colony formation from controls ([6]; with 6 Gy X-ray): 10 fold; reduction in colony formation from controls ([6]; with 8 Gy X-ray): 20 fold; IC50 [7]: 11 µM; IC50 [8]: 8 µM; IC50 [9]: 2 µM and 1.5 µM; tumor growth inhibition compared with vehicle control ([10]; (−)-gossypol 7.5 mg/kg p.o. in combination with cisplatin 5 mg/kg i.v.): cisplatin at 5 mg/kg achieved 65%; weight loss during the treatment ([10]; combination regimen of (−)-gossypol 7.5 mg/kg p.o. with cisplatin 5 mg/kg i.v.): CDDP alone, and 20-23% weight; mean apoptotic index ([11]; two cell lines with mutant p53, 10 μM): 20.7%±9.3; mean apoptotic index (AI) ([11]; two wild-type p53 tumor cell lines, 10 μM): 85.2%±6.9; cleavage of PARP protein [12]: more cleavage of PARP protein; IC50 [13]: 20 µM; cytotoxicity [14]: very limited effect; Complete tumor regression/Total [15, 20]: 2 out of 12 and 2/12; Percent regression [15, 20]: 17%; tumor growth inhibition compared with vehicle control ([15]; Table 9, (−)-gossypol 15 mg/kg p.o. in combination with docetaxel 7.5 mg/kg i.v.): 84% tumor growth inhibition as; tumor growth inhibition on day 42 ([15]; Table 9, PC-3 flank xenografts (~100 mm^3 at start), NCr-nu nude mouse, 15 mg/kg daily p.o., alone): growth inhibition (52% on day 42,; complete tumor regression, number of mice ([15]; Table 9, out of 5 mice): complete tumor regression in 3 out mice; tumor inhibition compared with vehicle control ([15]; Table 10, (−)-gossypol in combination with docetaxel 7.5 mg/kg i.v.): at 7.5 mg/kg achieved 89.9% tumor; tumor growth inhibition on day 56 compared to vehicle controls ([15]; Table 10, PC-3 flank xenografts (~120 mm^3 at start), NCr-nu nude mouse, daily p.o. for 28 days, alone (racemic 15 mg/kg)): antitumor activity (60% on day 56,; complete tumor regression, number of mice ([15]; Table 10, out of 8 mice): complete tumor regression in 5 out mice; inhibition of binding between Bid BH3 peptide and Bcl-2 [16]: directly inhibit binding between Bid BH3 peptide and Bcl-2; surviving (trypan blue excluding) fraction relative to untreated controls [17]: 20%
